Assay results as given in US9573972B2, “Nurotoxic sterol glycosides” (priority 2008, dated 2017).
“Also recorded” adds a separate entry of the source.

What was measured:
[1] = test system: Active Caspase-3; assay: Anti-active caspase-3 immunofluorescence; assay type: in vivo, mouse
Description: Tissue-mounted slides were processed for fluorescence microscopy as follows: Sections were rinsed in coplin jars for 45 minutes at room temperature (RT) in three changes of PBS. Sections were then incubated at RT for 30 minutes in a blocking permeabilization solution made of 5% normal goat serum (NGS), 5% normal rabbit serum (NRS) or 5% BlokHen II (Ayes Labs, Inc., Tigard, Oreg.), 0.05% Triton X-100 and PBS. Subsequently, the blocking solution was tipped off and the slides were rinsed in PBS for 2 minutes. […]

[2] = test system: lipid deposits; assay: Oil red O histochemistry of lipid deposits; assay type: in vivo, mouse
Description: Tissue-mounted slides were processed to evaluate lipid distribution with light microscopy with a protocol adapted from Dr. Roy Ellis (IMVS Division of Pathology, The Queen Elizabeth Hospital, Woodville, South Australia). First, an oil red O stock solution was prepared 2 hours prior to execution of the histochemical procedures. The oil red O stock stain solution was made by mixing oil red O (0.5 g, Sigma-Aldrich, Oakville, ON, Canada) and isopropanol (100 mL, Fisher Scientific, Nepean, ON, Canada) over a 40° C. water bath. Immediately prior to beginning the oil red O histochemical procedures, the oil red O working solution was made by combining 20 mL of distilled water for every 30 mL of oil red O stock stain solution. […] Slide-mounted sections were rinsed in coplin jars for 15 minutes at RT in three changes of PBS. Sections were then rinsed at RT with 60% isopropanol for 5 minutes. The spinal cord sections were then stained with a freshly prepared working solution of oil red O for 20 minutes and then rinsed with 60% isopropanol. Nuclear counterstaining was achieved by staining the sections with haematoxylin (haematoxylin, 7211, Richard Allan Scientific, Kalamazoo, Mich., USA) for 1 minute. Finally, the sections were rinsed with distilled water, dried under a fume hood and cover-slipped with Entellen (Merck, Darmstadt, Germany).
The numbers of immunoreactive somata or inclusions were counted across the ventral horn of the spinal cord, across brain hemispheres, or per dorsal or ventral root with the 40× objective lens in a 600 μm/600 μm area within region perimeters defined by a mouse brain atlas (2001). For each animal, eight cross-sections per spinal cord or brain region were studied. An average of both the right and left ventral horn for each of the eight cross sections was generated giving a final averaged number for each animal in each of the spinal cord areas. For quantification of the level of mitochondrial activity (cytochrome c oxidase labelling) in the lumbar spinal cord or tyrosine hydroxylase immunoreactivity in the substantia nigra pars compacta and striatal sections, images captured using the Motic B5 Professional Series 3.0 microscope (Motic Instruments Inc., Richmond, ON) and analyzed using Motic B5 Professional, Motic Images Advanced 3.0 (Motic Instruments Inc., Richmond, ON) were scanned into a TIFF format file and analysed using the NIH Image J 1.37 software to measure density levels of antibody labelling. Eight to 12 sections from each mouse per region of interest were included.

CC[C@H](/C=C/[C@@H](C)[C@H]1CC[C@H]2[C@@H]3CC=C4C[C@@H](O[C@@H]5O[C@H](CO)[C@@H](O)[C@H](O)[C@H]5O)CC[C@]4(C)[C@H]3CC[C@]12C)C(C)C [SG, Stigmasterol β-D-Glucopyranoside]
Apoptotic cells over time ([1]; SG-fed group over time (35 to 52 wk)): Apoptotic cells (SG-fed group over time) (ns)
Anti-active caspase 3 immunoreactive cells ([1]; SG-fed vs control, Time-point 2 (52 wk)): did not reach significance and (ns)
Lipid deposits DR over time ([2]; SG-fed over time (35 to 52 wk)): did not show time-dependent effects; also recorded: SG-fed DR over time: ns, p = 0.8062
Lipid deposits Lsc over time ([2]; SG-fed over time (35 to 52 wk)): did not experience an accumulation of deposits over time; also recorded: SG-fed Lsc over time: ns, p = 0.4864
Lipid deposits VR over time ([2]; SG-fed over time (35 to 52 wk)): did not show time-dependent effects; also recorded: SG-fed VR over time: ns, p = 0.5478
Lipids in dorsal roots ([2]; SG-fed vs control, 35 weeks): not significant
Lipids in ventral spinal roots, change ([2]; SG-fed vs control, 35 weeks): +10%
Lipids in dorsal root ([2]; SG-fed vs control, 52 weeks): statistically significant inter-group differences were not found
Lipids in ventral root ([2]; SG-fed vs control, 52 weeks): statistically significant inter-group differences were not found
Number and size of lipid deposits ([2]; lumbar spinal cord and ventral roots, SG-fed vs control): greater
